The record followed here is patent publication EP2929785A1, “A PLA inhibitor for inhibition of fat absorption” (PAT GmbH, priority 2014, dated 2015).

The subject of assay [1] is retrogradely perfused mouse livers. Description: Single pass [3H]oleate extraction rates in retrogradely perfused mouse livers. Format: in vivo, C57BL/6 mice. Conditions: mice pretreated i.p. 23 mg/kg, 1 h. On the procedure: Twelve-week-old female C57BL/6 mice were injected intraperitoneally with 1 ml UDCA-LPE [ChemCon, Freiburg, Germany] (Chamulitrat W. et al. Hepatology. 2009; 50: 143-154) at 23 mg/kg or phosphate-buffered saline (PBS) as a control with 5% Tween 80. […] Retrograde perfusion of oxygenized 100 µM albumin (A4503, Sigma, Munich, Germany) in PBS was performed at 37°C and a flow rate of 4 ml/min, with the perfusate collected from the opened portal vein (Hoffmann MJ et al. Hepatology. 2012; 55: 1369-1378). After equilibration for 5 min, a 1 ml bolus of 200 µM [3H]oleate (Perkin Elmer, Rodgau, Germany) along with 100 µM [methyl-14 C]albumin (Biotrend, Cologne, Germany) or 100 µM [14C]sucrose (Perkin Elmer) was introduced through the stopcock and the perfusion was allowed to continue for 5 min. Outflow samples were collected every 15 s and single pass extraction rates were determined as previously described (Hoffmann MJ et al. Toxicol. Sciences. 1999; 49: 40-47).

A further assay has as its system wild-type hepatocytes. Description: Fatty acid influx in primary hepatocytes from wild-type mice. Type of assay: cell-based. Conditions: UDCA-LPE pretreatment (Fig. 4B).
For assay [2], the system named is fatty acid uptake complex components. The assay can be described thus: Transcript levels of fatty acid uptake complex components by semi-quantitative RT-PCR in HepG2 cells. Type of assay: cell-based, human. Conditions: after 1 h of treatment, UDCA-LPE 50 µM (Fig. 6). The source says:
The following forward and reverse primers (Sigma) were used for RT-PCR: iPLA2ß, [NT] (SEQ ID NO: 1) and [NT] (SEQ ID NO: 2); CD36, [NT] (SEQ ID NO: 3) and [NT] (SEQ ID NO: 4); […] (SEQ ID NO: 5) and [NT] (SEQ ID NO: 6); and caveolin-1, [NT] (SEQ ID NO: 7) and reverse [NT] (SEQ ID NO: 8). The primers for FATP4 and ß-actin (internal control) were the same as those previously used as described in […] et al. Am J Physiol Endocrinol Metab 2011; 301, 785-796.

The next assay deals with T1, iPLA2ß (Homo sapiens, UniProt O60733).
T1 construct: PLA2 activity in DRM-PM fractions isolated from HepG2 cells; endogenous in cells; host or cells: HepG2 (DRM-PM fraction)
T1 sequence (O60733 1-806): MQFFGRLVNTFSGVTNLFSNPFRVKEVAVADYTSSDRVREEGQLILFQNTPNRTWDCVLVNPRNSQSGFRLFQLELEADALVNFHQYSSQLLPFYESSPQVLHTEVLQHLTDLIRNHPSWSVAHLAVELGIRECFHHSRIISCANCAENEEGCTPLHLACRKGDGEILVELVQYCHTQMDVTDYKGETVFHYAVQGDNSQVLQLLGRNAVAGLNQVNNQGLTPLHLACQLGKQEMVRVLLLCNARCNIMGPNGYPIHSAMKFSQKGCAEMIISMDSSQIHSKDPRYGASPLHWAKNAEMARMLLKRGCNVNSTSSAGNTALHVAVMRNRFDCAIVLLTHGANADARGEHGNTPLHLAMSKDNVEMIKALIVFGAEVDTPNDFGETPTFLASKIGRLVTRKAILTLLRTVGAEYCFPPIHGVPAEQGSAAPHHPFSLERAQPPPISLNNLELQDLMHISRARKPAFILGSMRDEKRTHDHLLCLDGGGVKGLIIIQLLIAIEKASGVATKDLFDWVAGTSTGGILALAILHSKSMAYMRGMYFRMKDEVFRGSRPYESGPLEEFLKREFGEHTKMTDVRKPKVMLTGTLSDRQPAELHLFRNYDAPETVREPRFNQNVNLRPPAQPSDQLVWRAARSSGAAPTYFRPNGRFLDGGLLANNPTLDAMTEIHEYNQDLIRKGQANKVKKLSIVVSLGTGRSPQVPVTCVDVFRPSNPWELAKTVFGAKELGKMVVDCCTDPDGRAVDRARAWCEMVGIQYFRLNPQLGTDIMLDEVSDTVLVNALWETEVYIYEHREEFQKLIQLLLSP
Description: PLA2 activity in DRM-PM fractions of HepG2 cells. Conditions: DRM-PM fractions after 1-h treatment; dose-dependent. Type of assay: biochemical. Here is the method: Detergent-resistant PM (DRM-PM) and non-DRM-PM fractions were isolated and characterized as previously described (Pohl J et al. Mol Biol Cell. 2005; 16: 24-31). Subcellular membrane fractions were prepared by centrifugation at 100,000 g for 1 h to obtain homogenate pellets. Nuclear extracts were obtained by centrifugation at 500 g for 5 min. Pellets were washed and resuspended in a buffer solution containing […] (pH 7.4), 100 mM NaCl, and 0.1 mM EDTA (Marzluff WF et al. Meth Cell Biol. 1987; 317-331)). The protein concentration was determined by the Bradford method (Bio- Rad, Munich, Germany).
PLA2 activity (µmoles LPC/mg protein/h) was determined by incubating samples with arachidonoyl thio-PC (62240; Cayman, Tallin, Estonia) for 1 h at 25°C in a Ca2+ -free buffer (Bhat MK et al. Biochim Biophys Act. 1993; 1166: 244-250). The reaction was terminated by adding 5,5-dithio-bis-2-nitrobenzoic acid and the absorbance at 405 nm was measured.

In a further assay the test system is CaCo2 cells. The assay can be described thus: Fatty acid influx in CaCo2 cells. Format: cell-based.

Consider “ursodeoxycholatelysophosphatidylethanolamide [UDCA-LPE]”, for which, in assay [1] (200 µM [3H]oleate:albumin (2:1)), the “cumulative proportion of the [3H]oleate extracted” value is 0.30 ± 0.03. The “inhibition of fatty acid influx” value was 34% in assay [1] (vs controls) and > 50% with CaCo2 cells (UDCA-LPE 100 µM, 1 h, scrambled siRNA control conditions). In the assay on wild-type hepatocytes, the fatty acid influx result is given as “inhibited”. Also, in assay [2], the “transcript levels of all fatty acid uptake complex components” value is listed as < 10 % of initial values. On iPLA2ß, the PLA2 activity entry was “suppression of PLA2 activity”. The “apical fatty acid influx” value in the assay on CaCo2 cells (CaCo2 cells cultured 21 days (polarized), pretreatment at the apical site) is recorded as “significantly inhibited”. The “fatty acid influx kinetics” value in the assay on CaCo2 cells (preincubation of CaCo2 cells) is reported as “non-competitive inhibition”.
